Source: patent US20020160986A1, “Compounds having activity as inhibitors of cytochrome P450RAI” (priority 2000, published 2002)

Legend:
RARα [1] = target: T1, RARα (Homo sapiens, UniProt P10276); assay: chimeric receptor transactivation assay, RARα; type: cell-based; settings: value in parentheses
T1 sequence (P10276 183-417 limits assumed): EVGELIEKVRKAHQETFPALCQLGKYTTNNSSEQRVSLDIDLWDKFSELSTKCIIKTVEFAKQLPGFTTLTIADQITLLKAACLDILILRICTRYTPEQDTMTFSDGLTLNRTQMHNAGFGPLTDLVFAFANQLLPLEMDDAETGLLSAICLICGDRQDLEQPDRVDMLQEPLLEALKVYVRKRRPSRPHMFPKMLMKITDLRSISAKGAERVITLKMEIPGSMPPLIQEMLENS
Description: (§1) Assays described below measure the ability of a compound to bind to, and/or activate various retinoid receptor subtypes. When in these assays a compound binds to a given receptor subtype and activates the transcription of a reporter gene through that subtype, then the compound is considered an agonist of that receptor subtype. […] In the below described assays the ability of the compounds to bind to RAR60 , RAR62 , RARγ, RXR60 , RXR62 , and RXRγ receptors, and the ability or inability of the compounds to activate transcription of a reporter gene through these receptor subtypes can be tested.
(§2) As far as specific assays are concerned, a chimeric receptor transactivation assay which tests for agonist-like activity in the RAR60 , RARβ, and RARγ, receptor subtypes, and which is based on work published by Feigner P. L. and Holm M. (1989) Focus, 112 is described in detail in U.S. Pat. No. 5,455,265. The specification of U.S. Pat. No. 5,455,265 is hereby expressly incorporated by reference. The numeric results obtained with several preferred compounds of this invention in this assay are shown below in Table 1.
(§3) A holoreceptor transactivation assay and a ligand binding assay which measure the antagonist/agonist like activity of the compounds of the invention, or their ability to bind to the several retinoid receptor subtypes, respectively, are described in published PCT Application No. WO WO93/11755 (particularly on pages 30-33 and 37-41) published on Jun. 24, 1993, the specification of which is also incorporated herein by reference. A detailed experimental procedure for holoreceptor transactivations has been described by Heyman et al. Cell 68,397-406, (1992); Allegretto et al. J. Biol. Chem. 268,26625-26633, and Mangelsdorf et al. The Retinoids: Biology, Chemistry and Medicine, pp 319-349, Raven Press Ltd., New York, which are expressly incorporated herein by reference. The results obtained in this assay are expressed in EC50 numbers, as they are also in the chimeric receptor transactivation assay. The results of ligand binding assay are expressed in Kd numbers. (See Cheng et al. Biochemical Pharmacology Vol. 22 pp 3099-3108, expressly incorporated herein by reference.)

RARγ = target: T2, RARγ (Homo sapiens, UniProt P13631); assay: chimeric receptor transactivation assay, RARγ; type: cell-based; settings: value in parentheses
T2 sequence (P13631 185-419 limits assumed): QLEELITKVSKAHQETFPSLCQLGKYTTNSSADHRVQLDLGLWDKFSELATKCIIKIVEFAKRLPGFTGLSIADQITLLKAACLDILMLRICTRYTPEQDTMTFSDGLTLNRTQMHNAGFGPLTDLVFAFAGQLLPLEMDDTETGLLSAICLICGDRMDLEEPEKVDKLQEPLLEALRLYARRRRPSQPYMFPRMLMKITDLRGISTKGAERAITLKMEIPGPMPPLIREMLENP
Description: as §1, §2, §3

RARβ = target: T3, RARβ (Homo sapiens, UniProt P10826); assay: chimeric receptor transactivation assay, RARβ; type: cell-based; settings: value in parentheses
T3 sequence (P10826 183-417 limits assumed): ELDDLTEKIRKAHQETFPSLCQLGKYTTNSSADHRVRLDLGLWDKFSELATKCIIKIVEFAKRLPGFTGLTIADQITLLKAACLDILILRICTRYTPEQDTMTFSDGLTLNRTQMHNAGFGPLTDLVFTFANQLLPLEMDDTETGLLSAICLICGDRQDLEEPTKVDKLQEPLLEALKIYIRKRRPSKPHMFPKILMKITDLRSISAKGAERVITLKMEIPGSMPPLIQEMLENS
Description: as §1
As far as specific assays are concerned, a chimeric receptor transactivation assay which tests for agonist-like activity in the RAR60 , RARβ, and RARγ, receptor subtypes, and which is based on work published by Feigner P. L. and Holm M. (1989) Focus, 112 is described in detail in U.S. Pat. No. 5,455,265. The specification of U.S. Pat. No. 5,455,265 is hereby expressly incorporated by reference.
as §3, with “A detailed experimental procedure for holoreceptor transactivations has been described by Heyman et al. Cell 68,397-406, (1992); Allegretto et al. J. Biol. Chem. 268,26625-26633, and Mangelsdorf et al. The Retinoids: Biology, Chemistry and Medicine, pp 319-349, Raven Press Ltd., New York, which are expressly incorporated herein by reference.” left out

RARα [2] = target: T4, RARα (Homo sapiens, UniProt P10276); assay: ligand binding assay, RARα; settings: read-out: RAR α Kd
T4 sequence (P10276 1-462): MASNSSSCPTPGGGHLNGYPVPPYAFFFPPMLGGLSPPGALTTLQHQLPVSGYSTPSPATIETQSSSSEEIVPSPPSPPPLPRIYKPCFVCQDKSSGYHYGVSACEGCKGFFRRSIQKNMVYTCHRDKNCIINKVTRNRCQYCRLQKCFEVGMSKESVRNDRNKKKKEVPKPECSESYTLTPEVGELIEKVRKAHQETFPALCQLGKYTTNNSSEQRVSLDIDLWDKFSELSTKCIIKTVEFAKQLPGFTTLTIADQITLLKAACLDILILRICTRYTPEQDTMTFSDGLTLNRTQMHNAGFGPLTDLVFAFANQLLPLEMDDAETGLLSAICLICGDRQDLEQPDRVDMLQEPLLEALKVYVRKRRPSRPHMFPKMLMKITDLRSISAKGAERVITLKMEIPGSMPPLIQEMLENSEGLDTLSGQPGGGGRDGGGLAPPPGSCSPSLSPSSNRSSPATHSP
Description: as §1
as §3, with “The results obtained in this assay are expressed in EC50 numbers, as they are also in the chimeric receptor transactivation assay. The results of ligand binding assay are expressed in Kd numbers. (See Cheng et al. Biochemical Pharmacology Vol. 22 pp 3099-3108, expressly incorporated herein by reference.)” left out

CN(C1CC1)C1CCC(C)(C)c2cc(C#Cc3ccc(C(=O)O)cc3)ccc21 (stereo not drawn) [Compound 3, 4-[(5-Cyclopropyl-methyl-amino)-8,8-dimethyl-5,6,7,8-tetrahydro-naphthalene-2yl-ethynyl]-benzoic acid]
RAR α (EFFICACY) (RARα [1]): (28)
RAR γ (EFFICACY) (RARγ): (52)
RAR β (EFFICACY) (RARβ): (54)

CC1(C)CCC(=O)c2ccc(C#Cc3ccc(CC(=O)O)cc3)cc21 [Compound 5, 4-[(8,8-Dimethyl-5-oxo-5,6,7,8-tetrahydro-naphthalene-2-yl-ethynyl)-phenyl]-acetic acid]
RAR β (EFFICACY) (RARβ): (36)

CN(C1CC1)C1CCC(C)(C)c2cc(C#Cc3ccc(CC(=O)O)cc3)ccc21 (stereo not drawn) [Compound 8, 4-[(5-(Cyclopropyl-methyl-amino)-8,8-dimethyl-5,6,7,8-tetrahydro-naphthalene-2-yl-ethynyl)-phenyl]-acetic acid]
RAR β (EFFICACY) (RARβ): (96)

CC1(C)CCC(=O)c2ccc(C#Cc3ccc(C(=O)O)c(F)c3)cc21 [Compound 10, 2-Fluoro-4-(818-dimethyl-5-oxo-5,6,7,8-tetrahydro-naphthalen-2yl-ethynyl)-benzoic acid]
RAR α (EFFICACY) (RARα [1]): (146)
RAR γ (EFFICACY) (RARγ): (94)
RAR β (EFFICACY) (RARβ): (86)

CN(C1CC1)C1CCC(C)(C)c2cc(C#Cc3ccc(C(=O)O)c(F)c3)ccc21 (stereo not drawn) [Compound 13, 4-[5-(Cyclopropyl-methyl-amino)-8,8-dimethyl-5,6,7.8-tetrahydro-naphthalene-2-yl-ethynyl]-2-fluoro benzoic acid]
RAR γ (EFFICACY) (RARγ): (9)
RAR β (EFFICACY) (RARβ): (6.6)

CC1(C)CC2(CC2)Oc2ccc(C#Cc3ccc(C(=O)O)cc3)cc21 [Compound 40, Benzoic acid, 4-[(3,4-dihydro-4,4-dimethylspiro[2H-1-benzopyran-2,1′-cyclopropane]-6-yl)ethynyl]-]
RAR α (EFFICACY) (RARα [1]): (207)
RAR γ (EFFICACY) (RARγ): (140)
RAR β (EFFICACY) (RARβ): (126)

CC1(C)CC2(CC2)Oc2ccc(C#Cc3ccc(C(=O)O)c(F)c3)cc21 [Compound 44, 2-Fluoro-benzoic acid, 4-[(3,4-dihydro-4,4-dimethylspiro[2H-1-benzopyran-2,1′-cyclopropane]-6-yl)ethynyl]-]
RAR α (EFFICACY) (RARα [1]): (138)
RAR γ (EFFICACY) (RARγ): (116)
RAR β (EFFICACY) (RARβ): (100)

CC1(C)CC(C)(C)c2cc(C(=O)Oc3ccc(CC(=O)O)cc3)ccc2O1 [Compound 46, 2,2,4,4-Tetramethyl-chroman-6-carboxylic acid 4-(carboxymethyl)phenyl ester]
Kd (RARα [2]): > 10 µM

COC1(c2ccc(C#Cc3ccc(C(=O)O)cc3)cc2)CC1 [Compound 69, 4-[4-(1-Methoxycyclopropyl)-phenylethynyl]-benzoic acid]
RAR α (EFFICACY) (RARα [1]): (10)
RAR γ (EFFICACY) (RARγ): (31)
RAR β (EFFICACY) (RARβ): (50)

CC(C)OC1(c2ccc(C#Cc3ccc(C(=O)O)cc3)cc2)CC1 [Compound 73, 4-[4-(1-Isopropoxycyclopropyl)-phenylethynyl]-benzoic acid]
RAR γ (EFFICACY) (RARγ): (24)
RAR β (EFFICACY) (RARβ): (39)

Cc1cc(C#Cc2ccc(C(=O)O)cc2)ccc1C1(OCc2ccccc2)CC1 [Compound 81, 4-[4-(1-Benzyloxycyclopropyl)-3-methyl-phenylethynyl]-benzoic acid]
RAR γ (EFFICACY) (RARγ): (67)
RAR β (EFFICACY) (RARβ): (80)

Cc1cc(C#Cc2ccc(C(=O)O)cc2)ccc1C1(OC(C)C)CC1 [Compound 85, 4-[4-(1-Isopropoxycyclopropyl)-3-methyl-phenylethynyl]-benzoic acid]
RAR α (EFFICACY) (RARα [1]): (60)
RAR γ (EFFICACY) (RARγ): (65)
RAR β (EFFICACY) (RARβ): (77)

Cc1cc(C#Cc2ccc(C(=O)O)cc2)ccc1C1(OCC(C)(C)C)CC1 [Compound 89, 4-[4-[1-(2,2-Dimethylpropyloxy)-cyclopropyl]-3-methyl-phenylethynyl]-benzoic acid]
RAR α (EFFICACY) (RARα [1]): (20)
RAR γ (EFFICACY) (RARγ): (46)
RAR β (EFFICACY) (RARβ): (50)

CCc1cc(C#Cc2ccc(C(=O)O)cc2)ccc1C1(OCc2ccccc2)CC1 [Compound 93, 4-[4-(1-Benzyloxycyclopropyl)-3-ethyl-phenylethynyl]-benzoic acid]
RAR α (EFFICACY) (RARα [1]): (114)
RAR γ (EFFICACY) (RARγ): (55)
RAR β (EFFICACY) (RARβ): (39)

CCCNC1(c2ccc(C#Cc3ccc(C(=O)O)cc3)cc2)CC1 [Compound 108, 4-[4-(1-Propylamino-cyclopropyl)-phenylethynyl]-benzoic acid]
RAR α (EFFICACY) (RARα [1]): (15)
RAR γ (EFFICACY) (RARγ): (10)
RAR β (EFFICACY) (RARβ): (36)

CCCN(CCC)C1(c2ccc(C#Cc3ccc(C(=O)O)cc3)cc2)CC1 [Compound 110, 4-[4-(1-Dipropylamino-cyclopropyl)-phenylethynyl]-benzoic acid]
RAR γ (EFFICACY) (RARγ): (42)
RAR β (EFFICACY) (RARβ): (44)

O=C(O)c1ccc(C#Cc2ccc(C3(NCc4ccccc4)CC3)cc2)cc1 [Compound 112, 4-[4-(1-Benzylamino-cyclopropyl)-phenylethynyl]-benzoic acid]
RAR β (EFFICACY) (RARβ): (37)
